Experimental data taken from US20240189490A1, “ANTIMICROBIAL ELUTING AIRWAY DEVICES” (priority 2021, published 2024).
No end group written: not given here.

Experiments:
[1] = Release of loaded protein or peptide from coated ET tubes in PBS; type: physicochemical
Method: Release Quantification. Release of loaded protein or peptide from ET tubes was achieved from quartered tube segments in PBS at 37° C. while shaking at 100 rpm. FITC-BSA elution and PLGA degradation samples were obtained by completely removing the supernatant and adding fresh PBS to each well. […] PLGA degradation was quantified via EnzyFluo L-Lactate Assay Kit (Bioassay Systems). Peptide release was quantified via Pierce Quantitative Fluorometric Peptide Assay (Thermo Scientific).

S. epidermidis = assay: Minimum inhibitory concentration (MIC) of Lasio; type: cell-based, Staphylococcus epidermidis; parameters: unit not given here; conditions: data not shown
Method: (§1) Bacteria Culture. Staphylococcus epidermidis (Winslow and Winslow) Evans (ATCC 13990) was cultured in nutrient broth aerobically at 37° C. Streptococcus pneumoniae (Klein) Chester (NCTC 7465; ATCC 33400) was cultured in Brain Heart Infusion Broth and plated on Trypticase soy agar with 5% defibrinated sheep blood (Colorado Serum Co.) aerobically (5% CO2) at 37° C.
(§2) Antibacterial Activity Assay.

[2] = system: Staphylococcus epidermidis; assay: Crystal violet biofilm assay on ET tubes; type: cell-based; conditions: 24 hours, 1×MIC/PLGA vs uncoated, 0.5×MIC/PLGA, free peptide vs 1×MIC/PLGA p<0.0001
Method: as §1, §2

[3] = system: Staphylococcus epidermidis; assay: Adherent bacterial viability on ET tubes (colony counts); type: cell-based; conditions: 24 hours, 1×MIC/PLGA vs uncoated, 0.5×MIC/PLGA p<0.0001, free peptide vs 1×MIC/PLGA p=0.0015
Method: as §1, §2

[4] = system: patient derived laryngotracheal fibroblasts
Method: Peptide/PLGA coated tubes and controls were first submerged in Fluorobrite DMEM supplemented with 10% FBS, 2% Anti-Anti, 1% MEM NEAA, and incubated for 24 hours at 37° ° C. while shaking at 100 rpm to achieve release. Simultaneously, laryngotracheal fibroblasts were seeded at 7,000 cells/well in 48 well plates and allowed to adhere overnight in a culture atmosphere at 37° C., 95% relative humidity, and 5% CO2. Cell media was replaced with appropriate tube releasate and incubated for 24 hours in the culture atmosphere. Invitrogen AlamarBlue HS Cell Viability Reagent (ThermoFisher Scientific) was used to quantify viability.

A4K14-citropin 1.1
linear release rate ([1]; mouse sized tube loaded with 17.04 μg peptide, over 9 days): 0.397 µg/day
encapsulated peptide released ([1]; mouse sized tube, by day 9): ~80%

VNWKKILGKIIKVVK-NH2 (C-terminus assumed) [Lasio, Lasioglossin-III]
linear release ([1]; from PLGA coated ET tubes, PBS at 37° C. shaking at 100 rpm, after initial burst release): 0.28 µg/day
minimum inhibitory concentration (S. epidermidis): 1.25
adherent bacterial populations (crystal violet biofilm assay) [2]: significant reduction in adherent bacteria
viability of adherent bacteria [3]: inhibited the viability of adherent bacteria
viability: 62.3%
cytotoxicity toward human patient-derived laryngotracheal fibroblasts [4]: not cytotoxic
